Patent US20240150377A1, “MODULATORS OF CYSTIC FIBROSIS TRANSMEMBRANE CONDUCTANCE REGULATOR” (VERTEX PHARMACEUTICALS INCORPORATED, priority 2020, published 2024)
Several values for one entry are separate records, joined by “and”; a condition that tells them apart may be missing. Equal entries are not always repeated. Where two headings read alike, the source gives them in different places. Blank lines part the entries; values can stand above or below the compound they belong to.

Tests used:
[1] = amide bond, 13-membered ring
[2] = target: T1, CFTR (Homo sapiens, UniProt P13569); assay: Membrane potential dye, Enteroid Assay A; type: cell-based; conditions: for Ent. A Max Activity: chloride transport as % of triple combination control (Enteroid Assay A); for EC50: human enteroid cells, 18-24 hours, acute 10 μM forskolin and 300 nM ivacaftor, read-out: Ent. A EC50
T1 sequence (P13569 with tags, fused parts or gaps DEL508-508): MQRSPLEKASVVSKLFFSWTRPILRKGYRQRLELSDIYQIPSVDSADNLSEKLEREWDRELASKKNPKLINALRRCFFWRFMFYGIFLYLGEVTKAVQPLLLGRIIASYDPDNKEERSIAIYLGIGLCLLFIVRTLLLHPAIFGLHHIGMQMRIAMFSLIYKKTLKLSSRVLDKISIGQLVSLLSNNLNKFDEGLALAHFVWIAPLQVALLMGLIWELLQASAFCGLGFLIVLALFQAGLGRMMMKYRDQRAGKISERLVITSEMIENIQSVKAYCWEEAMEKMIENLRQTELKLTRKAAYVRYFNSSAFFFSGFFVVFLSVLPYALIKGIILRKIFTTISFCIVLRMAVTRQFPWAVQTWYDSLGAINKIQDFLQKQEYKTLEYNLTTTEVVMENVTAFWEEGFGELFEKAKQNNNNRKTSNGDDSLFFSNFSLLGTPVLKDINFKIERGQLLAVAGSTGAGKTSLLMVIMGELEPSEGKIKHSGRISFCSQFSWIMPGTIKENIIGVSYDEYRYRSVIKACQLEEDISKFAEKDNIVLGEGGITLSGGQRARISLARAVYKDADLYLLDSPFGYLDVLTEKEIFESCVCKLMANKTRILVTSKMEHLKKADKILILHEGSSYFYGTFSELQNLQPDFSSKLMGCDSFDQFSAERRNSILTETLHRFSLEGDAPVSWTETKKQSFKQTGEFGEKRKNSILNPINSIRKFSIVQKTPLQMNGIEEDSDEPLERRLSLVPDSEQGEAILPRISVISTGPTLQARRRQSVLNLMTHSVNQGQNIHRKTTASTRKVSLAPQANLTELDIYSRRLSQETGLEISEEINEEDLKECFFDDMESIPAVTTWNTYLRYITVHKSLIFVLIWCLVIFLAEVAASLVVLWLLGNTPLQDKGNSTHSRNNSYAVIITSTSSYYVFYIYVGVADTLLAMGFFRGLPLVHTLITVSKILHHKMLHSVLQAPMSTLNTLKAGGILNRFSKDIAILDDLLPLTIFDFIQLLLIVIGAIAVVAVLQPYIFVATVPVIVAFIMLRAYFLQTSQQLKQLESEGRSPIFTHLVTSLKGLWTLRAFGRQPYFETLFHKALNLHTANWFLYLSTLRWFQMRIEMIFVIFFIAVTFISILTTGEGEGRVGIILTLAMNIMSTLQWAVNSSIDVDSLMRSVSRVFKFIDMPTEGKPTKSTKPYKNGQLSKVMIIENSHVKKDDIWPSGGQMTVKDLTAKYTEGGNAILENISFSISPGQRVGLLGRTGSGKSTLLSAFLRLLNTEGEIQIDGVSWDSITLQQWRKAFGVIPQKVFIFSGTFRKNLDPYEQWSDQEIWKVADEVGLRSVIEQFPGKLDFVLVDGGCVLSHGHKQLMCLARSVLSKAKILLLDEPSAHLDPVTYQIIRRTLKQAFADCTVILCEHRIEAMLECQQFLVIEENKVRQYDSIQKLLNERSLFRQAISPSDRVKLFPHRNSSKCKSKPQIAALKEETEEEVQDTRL
Method in brief: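 Human intestinal enteroids incubated 18-24 h at 37 °C with test compound, then loaded with 20 μM methyl oxonol (with CaCC inhibitors). Chloride transport triggered in chloride-free buffer with 10 μM forskolin, 100 μM IBMX, 300 nM Compound III; fluorescence read 15 min, expressed as % of a triple-combination corrector/potentiator control.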

[3] = target: T2, F508del (Homo sapiens, UniProt P13569, DEL508-508); assay: 3T3 assay: membrane potential optical assay for F508del correction; type: cell-based; conditions: F508del NIH 3T3 cells; for Emax: NIH3T3, compared to lumacaftor in combination with acutely added 300 nM Ivacaftor, read-out: 3T3 Max Activity; for EC50: 18-24 hours at 37° C., forskolin, acutely added 300 nM Ivacaftor
T2 construct: expressed in transfected cells
T2 sequence (P13569 with tags, fused parts or gaps DEL508-508): as above
Text: 1. Membrane Potential Optical Methods for Assaying F508del Modulation Properties of Compounds
The assay utilizes fluorescent voltage sensing dyes to measure changes in membrane potential using a fluorescent plate reader (e.g., FLIPR III, Molecular Devices, Inc.) as a readout for increase in functional F508del in NIH 3T3 cells. The driving force for the response is the creation of a chloride ion gradient in conjunction with channel activation by a single liquid addition step after the cells have previously been treated with compounds and subsequently loaded with a voltage sensing dye.
2. Identification of Corrector Compounds
To identify correctors of F508del, a single-addition HTS assay format was developed. This HTS assay utilizes fluorescent voltage sensing dyes to measure changes in membrane potential on the FLIPR III as a measurement for increase in gating (conductance) of F508del in F508del NIH 3T3 cells. The F508del NIH 3T3 cell cultures were incubated with the corrector compounds at a range of concentrations for 18-24 hours at 37° C., and subsequently loaded with a redistribution dye. The driving force for the response is a Cl^− ion gradient in conjunction with channel activation with forskolin in a single liquid addition step using a fluorescent plate reader such as FLIPR III.
Bath Solution #1: (in mM) NaCl 160, KCl 4.5, CaCl2) 2, MgCl2 1, HEPES 10, pH 7.4 with NaOH.
Chloride-free bath solution: Chloride salts in Bath Solution #1 (above) are substituted with gluconate salts.
NIH3T3 mouse fibroblasts stably expressing F508del are used for optical measurements of membrane potential. The cells are maintained at 37° C. in 5% CO2 and 90% humidity in Dulbecco's modified Eagle's medium supplemented with 2 mM glutamine, 10% fetal bovine serum, 1× NEAA, b-ME, 1×pen/strep, and 25 mM HEPES in 175 cm^2 culture flasks. For all optical assays, the cells were seeded at ˜20,000/well in 384-well Matrigel-coated plates. For the correction assays, the cells are cultured at 37° C. with and without compounds for 16-24 hours.

[4] = target: T1, CFTR; assay: Membrane potential dye, Enteroid Assay B; type: cell-based; conditions: Table 6
Method in brief: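 Human intestinal enteroids were treated with compound in maintenance medium for 18-24 h at 37° C, then loaded with methyl oxonol membrane-potential dye (25 min, room temperature). Chloride transport was triggered in chloride-free buffer with 10 μM forskolin, 100 μM IBMX and 300 nM Compound III, fluorescence read 15 min; expressed as % of triple-combination control.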

Compound: Cc1cccc(C)c1-c1cc2nc(n1)NS(=O)(=O)c1cccc(c1)C(=O)N(Cc1cncc(N(C)C3CCC3)n1)[C@@H]1CN(C(=O)OC(C)(C)C)C[C@H]1O2
ring closure, yield after HPLC ([1]; from Cc1cccc(C)c1-c1cc(O[C@@H]2CN(C(=O)OC(C)(C)C)C[C@H]2NCc2cncc(N(C)C3CCC3)n2)nc(NS(=O)(=O)c2cccc(C(=O)O)c2)n1, CDMT/NMM, DMF, 24.3 mM, 15.1 h): 48%

Compound: Cc1cccc(C)c1-c1cc2nc(n1)NS(=O)(=O)c1cccc(c1)C(=O)N(Cc1ccc(I)cc1)[C@H](CC(C)(C)C)CO2
ring closure, yield after HPLC ([1]; from Cc1cccc(C)c1-c1cc(OC[C@@H](CC(C)(C)C)NCc2ccc(I)cc2)nc(NS(=O)(=O)c2cccc(C(=O)O)c2)n1, HATU/DIEA, DMF, 26.1 mM, 15.0 h): 32%

Compound: Cc1cccc(C)c1-c1cc2nc(n1)NS(=N)(=O)c1cccc(c1)C(=O)N(Cc1ncc(N3CC(C)(C)C3)cn1)[C@H](CC(C)(C)C)CO2 (single isomer, unassigned; isomer a)
ring closure, yield after HPLC ([1]; from Cc1cccc(C)c1-c1cc(OC[C@@H](CC(C)(C)C)NCc2ncc(N3CC(C)(C)C3)cn2)nc(NS(=N)(=O)c2cccc(C(=O)O)c2)n1, CDMT/NMM, DMF, 21.8 mM, 14.0 h): 9%

Compound: Cc1cccc(C)c1-c1cc2nc(n1)NS(=O)(=O)c1cccc(c1)C(=O)N(C)CC(c1ccc(CC3(C(F)(F)F)CC3)cn1)O2 (stereo not shown)
ring closure, yield after HPLC ([1]; from CNCC(Oc1cc(-c2c(C)cccc2C)nc(NS(=O)(=O)c2cccc(C(=O)O)c2)n1)c1ccc(CC2(C(F)(F)F)CC2)cn1, HATU (excess NaOtBu from SNAr), THF/DMF, 49.6 mM, 25.0 °C, 3.0 h, 2 steps): 35%

Compound: Cc1cccc(C)c1-c1cc2nc(n1)NS(=O)(=O)c1cccc(c1)C(=O)N(C[C@H]1COC(C)(C)O1)[C@H](CC(C)C)CO2
ring closure, yield after HPLC ([1]; from Cc1cccc(C)c1-c1cc(OC[C@@H](CC(C)C)NC[C@H]2COC(C)(C)O2)nc(NS(=O)(=O)c2cccc(C(=O)O)c2)n1, HATU/DIEA, DMF, 26.2 mM, 25.0 °C, 2.0 h, 2 steps): 12%

Compound: CCOC(=O)CCCCN1C(=O)c2cccc(c2)S(=O)(=O)Nc2nc(cc(-c3c(C)cccc3C)n2)OC[C@H]1CC(C)(C)C
ring closure, yield after HPLC ([1]; from CCOC(=O)CCCCN[C@@H](COc1cc(-c2c(C)cccc2C)nc(NS(=O)(=O)c2cccc(C(=O)O)c2)n1)CC(C)(C)C, HATU/DIEA, DMF, 62.0 mM, 25.0 °C, 1.0 h): 66%

Compound: Cc1cccc(C)c1-c1cc2nc(n1)NS(=O)(=O)c1cccc(c1)C(=O)N(Cc1cncc(N3CCC[C@H]3C)n1)C(C1CC(C)(C)C1)CO2 (stereo partly shown)
ring closure, yield after HPLC ([1]; from Cc1cccc(C)c1-c1cc(OCC(NCc2cncc(N3CCC[C@H]3C)n2)C2CC(C)(C)C2)nc(NS(=O)(=O)c2cccc(C(=O)O)c2)n1, CDMT/NMM, DMF, 12.7 mM, 16.5 h): 18% and 17%

Compound: Cc1cccc(C)c1-c1cc2nc(n1)NS(=O)(=O)c1cccc(c1)C(=O)N(CCc1cccc(F)n1)[C@H](CC(C)(C)C)CO2
ring closure, yield after HPLC ([1]; from Cc1cccc(C)c1-c1cc(OC[C@@H](CC(C)(C)C)NCCc2cccc(F)n2)nc(NS(=O)(=O)c2cccc(C(=O)O)c2)n1, CDMT/NMM, DMF, 25.0 °C, 3.0 h, 2 steps): 6%

Ent. A Max Activity ([2]; Table 6): +++ (+++ is >60%)
EC50 ([2]; Table 6): < 1 µM
Emax ([3]; Table 6): > 60%
EC50 ([3]; Table 6): < 1 µM
Ent. B Max Activity ([4]; chloride transport as % of triple combination control (Enteroid Assay B)): +++ (+++ is >60%)
EC50 ([4]; human enteroid cells, 18-24 hours, acute 10 μM forskolin and 300 nM ivacaftor, read-out: Ent. B EC50): < 1 µM
Compound: Cc1cccc(C)c1-c1cc2nc(n1)NS(=O)(=O)c1cccc(c1)C(=O)N(Cc1ccc(N3CCC(C)CC3)nc1)[C@H](CC(C)C)CO2 [Compound 975]

Compound: Cc1cccc(C)c1-c1cc2nc(n1)NS(=O)(=O)c1cccc(c1)C(=O)N(CC1CCN(C(=O)OC(C)(C)C)CC1)[C@H](CC(C)(C)C)CO2
ring closure, yield after HPLC ([1]; from Cc1cccc(C)c1-c1cc(OC[C@@H](CC(C)(C)C)NCC2CCN(C(=O)OC(C)(C)C)CC2)nc(NS(=O)(=O)c2cccc(C(=O)O)c2)n1, CDMT/NMM, DMF, 25.0 °C, 3.5 h, 2 steps): 25%

Compound: Cc1cccc(C)c1-c1cc2nc(n1)NS(=O)(=O)c1cccc(c1)C(=O)N(CCc1ccc(Br)cn1)[C@H](CC(C)(C)C)CO2
ring closure, yield after HPLC ([1]; from Cc1cccc(C)c1-c1cc(OC[C@@H](CC(C)(C)C)NCCc2ccc(Br)cn2)nc(NS(=O)(=O)c2cccc(C(=O)O)c2)n1, CDMT/NMM, DMF, 25.0 °C, 3.0 h, 2 steps): 15%

Compound: Cc1cccc(C)c1-c1cc2nc(n1)NS(=O)(=O)c1cccc(c1)C(=O)N(Cc1ccccn1)[C@H](CC(C)(C)C)CO2
ring closure, yield after HPLC ([1]; from Cc1cccc(C)c1-c1cc(OC[C@@H](CC(C)(C)C)NCc2ccccn2)nc(NS(=O)(=O)c2cccc(C(=O)O)c2)n1, HATU/TEA, DMF, 20.2 mM, 16.0 h): 41%

Ent. A Max Activity ([2]; Table 6): +++ (+++ is >60%)
EC50 ([2]; Table 6): < 1 µM
Emax ([3]; Table 6): > 60%
EC50 ([3]; Table 6): < 1 µM
Compound: Cc1cccc(C)c1-c1cc2nc(n1)NS(=O)(=O)c1cccc(c1)C(=O)N(C)[C@H](CC(C)C)C(c1ccc(C(C)(C)C)cn1)O2 (stereo in doubt) [Compound 1, (10S,11R)-10-(5-tert-butyl-2-pyridyl)-6-(2,6-dimethylphenyl)-11-isobutyl-12-methyl-2,2-dioxo-9-oxa-2λ^6-thia-3,5,12,19-tetrazatricyclo[12.3.1.14,8]nonadeca-1(18),4(19),5,7,14,16-hexaen-13-one]

Compound: COC(=O)C12CC(CN3C(=O)c4cccc(c4)S(=O)(=O)Nc4nc(cc(-c5c(C)cccc5C)n4)OC[C@H]3CC(C)(C)C)(C1)C2
ring closure, yield after HPLC ([1]; from COC(=O)C12CC(CN[C@@H](COc3cc(-c4c(C)cccc4C)nc(NS(=O)(=O)c4cccc(C(=O)O)c4)n3)CC(C)(C)C)(C1)C2, CDMT/NMM, DMF, 29.1 mM, 25.0 °C, 60.0 h): 27%

Ent. A Max Activity ([2]; Table 6): +++ (+++ is >60%)
EC50 ([2]; Table 6): < 1 µM
Emax ([3]; Table 6): > 60%
EC50 ([3]; Table 6): < 1 µM
Compound: Cc1cccc(C)c1-c1cc2nc(n1)NS(=O)(=O)c1cccc(c1)CN(CCC(C)(C)C)[C@H](CC(C)C)CO2 [Compound 1043]

Compound: Cc1cccc(C)c1-c1cc2nc(n1)NS(=O)(=O)c1cccc(c1)C(=O)N(Cc1cccc(F)n1)[C@H](CC(C)(C)C)CO2
ring closure, yield after HPLC ([1]; from 3-[[4-(2,6-dimethylphenyl)-6-[(2R)-2-[(6-fluoro-2-pyridyl)methylamino]-4,4-dimethyl-pentoxy]pyrimidin-2-yl]sulfamoyl]benzoic acid (Dihydrochloride salt), CDMT/NMM, DMF, 25.2 mM): 66%

Compound: CCOC(=O)COc1ccc(CN2C(=O)c3cccc(c3)S(=O)(=O)Nc3nc(cc(-c4c(C)cccc4C)n3)OC[C@H]2CC(C)(C)C)nc1
ring closure, yield after HPLC ([1]; from CCOC(=O)COc1ccc(CN[C@@H](COc2cc(-c3c(C)cccc3C)nc(NS(=O)(=O)c3cccc(C(=O)O)c3)n2)CC(C)(C)C)nc1, HATU/DIEA, DMF, 29.1 mM, 25.0 °C, 4.0 h): 42%

Compound: Cc1cccc(C)c1-c1cc2nc(n1)NS(=O)(=O)c1cccc(c1)C(=O)N(Cc1ccc(F)nc1)[C@H](CC(C)(C)C)CO2
ring closure, yield after HPLC ([1]; from Cc1cccc(C)c1-c1cc(OC[C@@H](CC(C)(C)C)NCc2ccc(F)nc2)nc(NS(=O)(=O)c2cccc(C(=O)O)c2)n1, CDMT/NMM, DMF, 25.0 °C, 5.0 h, 2 steps): 34%

Ent. A Max Activity ([2]; Table 6): +++ (+++ is >60%)
EC50 ([2]; Table 6): < 1 µM
Emax ([3]; Table 6): > 60%
EC50 ([3]; Table 6): < 1 µM
Compound: Cc1cccc(C)c1-c1cc2nc(n1)NS(=O)(=O)c1cccc(c1)C(=O)N(C)[C@H](CC1CCCCC1)O2 [Compound 1193]

Ent. A Max Activity ([2]; Table 7): +++ (+++ is >60%)
EC50 ([2]; Table 7): < 1 µM
Emax ([3]; Table 7): > 60%
EC50 ([3]; Table 7): < 1 µM
Compound: CC(=O)N1CCC(CCN2C(=O)c3cccc(c3)S(=O)(=O)Nc3nc(cc(-c4c(C)cccc4C)n3)OC[C@H]2CC(C)C)CC1 [Compound 1107]
